Values quoted from earlier work in patent US11266662B2, “Ganaxolone for use in prophylaxis and treatment of postpartum depression” (Marinus Pharmaceuticals, Inc., priority 2018, dated 2022).

Test system: patients
Conditions: 60 μg and 90 μg brexanolone dose regimens, IV infusion; cited from earlier work

SMILES: CC(=O)[C@H]1CC[C@H]2[C@@H]3CC[C@H]4C[C@H](O)CC[C@]4(C)[C@H]3CC[C@]12C [brexanolone]
- Patients with abrupt loss of consciousness, syncope or presyncope: about 4%
